As usually defined, the IC50 is the concentration that gives 50% inhibition.

Here are results for two compounds from US20110136880A1, “Latrunculin-Based Macrolides and Their Uses” (priority 2009, published 2011).

One assay deals with MCF7. Nature of the assay: MTT proliferation assay, MCF7. It counts as cell-based, human. As to conditions: for IC50: Homo sapiens, MCF7, MTT, 72 h, mean ± SEM, read-out: IC50 (μM) MCF7. The source says:
(§1) The antiproliferative and anti-invasive activities of compounds 1-14 were quantified using MTT and cell invasion assay kits, respectively. Latrunculin A (compound 1) was used as a positive control in all biological assays, because it is known to be an actin polymerization inhibitor, with cytotoxic, antiproliferative, and anti-invasive activities. The 3-[4,5-dimethylthiazol-2-yl]-2,5-diphenyl tetrazolium bromide (MTT) assay selectively detects living cells in a quantitative, colorimetric fashion, based on a living cell's ability to reduce MTT to an insoluble, purple formazan dye. The MTT assay is routinely used to assess cytotoxicity and proliferation inhibition activities. The antiproliferative activities of compounds 1-14 were measured against two human mammary gland adenocarcinoma cell lines, MCF7 and MDA-MB-231, and against human prostate cancer cells PC-3 at five different doses (0.1, 0.5, 1, 10, and 50 μM). While many of the semisynthetic latrunculins had similar activity levels, some had greater activity than compound 1. […] Although the MDA-MB-231 cells were more resistant than MCF7 against most latrunculin derivatives tested, compound 14 had potent activity against both cell lines.
(§2) MTT Proliferation Assay. The growth of MCF7, MDA-MB-231, and PC-3 cancer cell lines was measured using an MTT kit (TACS™, TREVIGEN®, Inc.). Exponentially growing cells were plated in a 96-well plate at a density of 8×10^3 cells per well, and allowed to attach for 24 h. Complete growth medium was then replaced with 100 μL of RPMI serum-free medium containing various concentrations (50, 10, 1, 0.5, 0.1 μM) of the particular test compound. Culture continued at 37° C. under 5% CO2. After 72 h of culture, the cells were treated with MTT solution (10 μL/well) at 37° C. for 4 h. The color reaction was stopped by adding solubilization/stop solution (100 μL/well). Incubation continued at 37° C. continued to completely dissolve the formazan dye product. Absorbance of the samples was determined at 570 nm with an ELISA plate reader (BioTek, VT). The number of cells per well was calculated against a standard curve that had been prepared by plating various concentrations of cells, as determined by hemocytometer, at the start of each experiment. IC50 for each compound was calculated using a nonlinear regression curve fit of log concentration versus the number of cells/well, using GraphPad Prism 5.0 (GraphPad Software, La Jolla, Calif.).

In another assay the test system is PC-3. Nature of the assay: MTT proliferation assay, PC-3. It counts as cell-based, human. As to conditions: for IC50: Homo sapiens, PC-3, MTT, 72 h, read-out: IC50 (μM) PC-3.
Description: as §1, §2

In assay [1] the test system is MDA-MB-231. Nature of the assay: MTT proliferation assay, MDA-MB-231. As to conditions: for IC50: Homo sapiens, MDA-MB-231, MTT, 72 h, mean ± SEM, read-out: IC50 (μM) MDA-MB-231. In kind it is cell-based, human.
Description: as §1, §2
(Tetrazolium dyes change colour on reduction, which living cells bring about.)

The subject of assay [2] is breast, CNS, colon, lung, melanoma, ovarian, and renal cancer cells. Nature of the assay: Antiproliferative testing against 60 cell lines (NSC compounds). In kind it is cell-based.
The subject of another assay is HeLa cells. As to the kind of experiment: HeLa cell G2/M assays. It counts as cell-based. An excerpt: This assay measures HeLa cell proliferation, apoptosis, DNA content and condensation, cyclin B, and phosphor-histone H3.
A further assay concerns array of kinases. Nature of the assay: Kinase profiling. Particulars: any kinase tested. In kind it is binding. How it is done:
Latrunculins B and H (compounds 20 and 14, respectively) were tested in a panel of assays including ApoE secretion, anti-angiogenesis, G2/M, Wnt pathway, insulin secretion, and an array of kinase profiling. The G2/M assays include HeLa cell proliferation, apoptosis, DNA content, and condensation, cyclin B, and phosphor-histone H3. […] Alkaline phosphatases may perhaps be a target of the anti-invasive latrunculin 11.

Assay [3] concerns alkaline phosphatase in C2C12 cells. As to the kind of experiment: Alkaline phosphatase in C2C12 cells (Wnt pathway). It counts as cell-based. Particulars: Mus musculus. An excerpt: (§3) Effects on Wnt/β-catenin. […] These two compounds affected both alkaline phosphatase and β-catenin levels in C2C12 cells.
A further assay has as its system β-catenin in C2C12 cells. Nature of the assay: Wnt/β-catenin signaling, β-catenin levels in C2C12 cells. It counts as cell-based.
Description: as §3

Assay [4] concerns MDA-MB-231. Nature of the assay: Wound-healing assay. In kind it is cell-based, human. As to conditions: 100 nM dose. The procedure:
Wound-healing assay. MDA-MB-231 cells are plated onto sterile 24-well plates and allowed to form a confluent cell monolayer (>95% confluence) overnight. Wounds are then inflicted on each cell monolayer using a sterile 200 μL pipette tip. Media are removed, and cells are washed twice with PBS and once with fresh serum-free media. Test latrunculin compounds at various concentrations (100 nM-10 μM) in fresh, serum-free media are added to each well and incubated for 24 h under serum-starved conditions. Media are then removed, and the cells are washed, fixed and stained using Diff-Quick™ staining (Dade Behring Diagnostics, Aguada, Puerto Rico). Cells that have migrated across the inflicted wound are counted under the microscope in three or more randomly selected fields (magnification: 400×). All experiments are conducted independently in triplicate replications.

The subject of assay [5] is prostate cancer cell line PC-3. Nature of the assay: Invasion assay, PC-3. It counts as cell-based, human. Particulars: without cytotoxicity.

`C/C1=C/C(=O)O[C@@H]2C[C@@H](CC[C@H](C)/C=C\C=C\CC1)O[C@@](O)([C@@H]1CSC(=O)N1CO)C2` [Compound 14, N-Hydroxymethyllatrunculin A]: the IC50 stood at 0.12 ± 0.01 µM in the assay with MCF7, 0.36 µM in the assay on PC-3 and 2.99 ± 0.15 µM in the assay on MDA-MB-231 [1]. Moreover, the “factor of greater activity than compound 1, MCF7 proliferation assay” value in the assay on MCF7 (assessed at 1 μM) is 4. Also, the “fold increase in activity against MCF7 versus compound 1” value with MCF7 (relative to compound 1) worked out at 4.0 fold. Besides, the “fold increase in activity against PC-3 versus compound 1” value in the assay on PC-3 (relative to compound 1) came out at 10.8 fold. Moreover, in the assay with MDA-MB-231 [1] (assessed at 1 μM), the “factor of greater activity than compound 1, MDA-MB-231 proliferation assay” value was 1.4. In addition, the “number of the 60 cell lines tested with antiproliferative activity” value in [2] (dose of 10 μM) is 18. This compound also returned a log10GI50 in assay [2] (five-points dose-response, range over active cell lines) of −7.13 to −7.83. In the assay on HeLa cells (flow cytometry), the “dose range of strong growth inhibition of HeLa cells at early interphase” value is 0.04 to 1.25 µM. Besides, the “activity in G2_M assays compared with nocodazole” value in the assay on HeLa cells (less active than compound 11) is “greater activity than did nocodazole”. The affinity toward kinases result with array of kinases is given as “Neither compound 20 nor compound 14 showed affinity toward any kinase tested”.

As for `COc1ccc(CC(=O)N2C(=O)SC[C@H]2[C@@]2(OC)C[C@H]3C[C@@H](CC[C@H](C)/C=C\C=C\CC/C(C)=C\C(=O)O3)O2)cc1` [Compound 11, 17-O-Methyl-N-(7′-methoxyphenylacetyl)latrunculin A], the IC50 with MCF7 is 15.4 ± 1.21 µM; in the assay on PC-3, 19.8 µM; in the assay on MDA-MB-231 [1], 26.2 ± 3.91 µM; in assay [3], 0.004 µM; with β-catenin in C2C12 cells (Mus musculus), 0.007 µM. The Wnt/β-catenin signaling result in the assay with β-catenin in C2C12 cells is on record as “strongly inhibited”. The “times greater inhibition against G2-M-phase HeLa cells compared to nocodazole” value in the assay with HeLa cells (various G2_M assays) is 3.5-51.0 times. In the assay on MDA-MB-231 [4], the anti-migratory activity entry is reported as “potent anti-migratory”. Besides, in [5], the “anti-invasive activity against PC-3” value is given as “potent anti-invasive activity”.
